Results as given in patent publication US8129355B2, “Ketone ligands for modulating the expression of exogenous genes via an ecdysone receptor complex” (priority 2002, dated 2012).
Read-outs that look alike come from different tables or passages of the source.

How the values were obtained:
[1] = molecular target: T1, GAL4 DBD-CfEcR(DEF)/VP16AD-MmRXRE (Choristoneura fumiferana, UniProt O77240); assay: cell-based
T1 sequence (O77240 1-513): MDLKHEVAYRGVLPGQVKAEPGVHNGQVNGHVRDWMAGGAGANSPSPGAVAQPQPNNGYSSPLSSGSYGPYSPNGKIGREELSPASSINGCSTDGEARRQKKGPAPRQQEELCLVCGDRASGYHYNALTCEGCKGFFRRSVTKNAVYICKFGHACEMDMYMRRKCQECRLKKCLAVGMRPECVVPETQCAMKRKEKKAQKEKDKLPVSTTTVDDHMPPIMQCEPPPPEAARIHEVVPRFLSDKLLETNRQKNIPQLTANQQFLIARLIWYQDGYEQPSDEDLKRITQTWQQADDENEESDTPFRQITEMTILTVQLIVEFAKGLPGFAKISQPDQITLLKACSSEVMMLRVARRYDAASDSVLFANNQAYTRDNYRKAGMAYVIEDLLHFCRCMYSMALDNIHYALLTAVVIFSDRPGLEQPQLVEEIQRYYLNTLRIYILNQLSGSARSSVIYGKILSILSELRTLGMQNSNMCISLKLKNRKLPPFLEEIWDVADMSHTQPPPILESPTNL
Description: GAL4 DBD-CfEcR(DEF)/VP16AD-MmRXRE: The wild-type D, E, and F domains from spruce budworm Choristoneura fumiferana EcR (“CfEcR-DEF”; SEQ ID NO: 1) were fused to a GAL4 DNA binding domain (“Gal4 DBD1-147”; nucleotides 31 to 471 of SEQ ID NO: 2) and placed under the control of the SV40e promoter of pM vector (PT3119-5, Clontech, Palo Alto, Calif.). The D and E domains from Mus Musculus RXR (“MmRXR-DE”; SEQ ID NO: 10) were fused to the transactivation domain from VP16 (“VP16AD”; SEQ ID NO: 5) and placed under the control of the SV40e promoter of the pVP16 vector (PT3127-5, Clontech, Palo Alto, Calif.).
CHO cells were transienty transfected with transcription cassettes for GAL4 DBD-CfEcR(DEF) and for VP16AD-MmRXRE controlled by SV40e promoters. Stably transfected cells were selected using Hygromycin. Individually isolated CHO cell clones were transiently transfected with a GAL4 RE-luciferase reporter (pMR-Luc, Stratagene, La Jolla, Calif.). The 13B3 clone was selected using Zeocin.
Cells were trypsinized and diluted to a concentration of 2.5×10^4 cells mL. 100 μL of cell suspension was placed in each well of a 96 well plate and incubated at 37° C. under 5% CO2 for 24 h. Ligand stock solutions were prepared in DMSO and diluted 300 fold for all treatments. Dose response testing consisted of 8 concentrations ranging from 33 μM to 0.01 μM.
Luciferase reporter gene expression was measured 48 h after cell treatment using Bright-Glo™ Luciferase Assay System from Promega (E2650). Luminescence was detected at room temperature using a Dynex MLX microtiter plate luminometer.
Fold inductions were calculated from single dose testing by dividing relative light units (RLU) in ligand treated cells by RLU in DMSO treated cells. BC50s were calculated from dose response data using a three-parameter logistic model.

[2] = molecular target: T2, Bombyx mori EcR (VP16 fusion, switch construct CVBE) with 6XEcRE LacZ reporter (Bombyx mori, UniProt P49881); assay: Z3 assay: β-galactosidase (LacZ) reporter gene fold induction in stably transformed human 293 kidney cells (clone Z3); format: cell-based; conditions: for Fold Induction Average, Z3 Assay (33 μM): single dose 33 μM, ligand treated / DMSO treated cells
T2 construct: expressed in transfected cells; host or cells: Human 293 kidney (HEK-293) cells, retrovirally infected, clone Z3
T2 sequence (P49881 86-606 limits assumed): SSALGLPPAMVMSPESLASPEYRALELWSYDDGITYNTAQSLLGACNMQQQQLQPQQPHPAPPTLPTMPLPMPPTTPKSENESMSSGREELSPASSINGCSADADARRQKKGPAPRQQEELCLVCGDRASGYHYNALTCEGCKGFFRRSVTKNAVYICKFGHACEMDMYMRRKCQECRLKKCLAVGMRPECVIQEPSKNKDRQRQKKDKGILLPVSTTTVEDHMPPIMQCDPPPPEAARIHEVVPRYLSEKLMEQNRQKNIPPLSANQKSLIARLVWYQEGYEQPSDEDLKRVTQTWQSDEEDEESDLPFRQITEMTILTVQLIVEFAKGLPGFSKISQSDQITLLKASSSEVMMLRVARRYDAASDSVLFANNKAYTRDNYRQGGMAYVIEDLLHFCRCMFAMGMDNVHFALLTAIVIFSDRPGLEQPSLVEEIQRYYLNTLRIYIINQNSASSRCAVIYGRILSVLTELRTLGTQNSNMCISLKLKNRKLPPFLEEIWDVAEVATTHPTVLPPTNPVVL
T2 sequence (P19793 1-462 partner): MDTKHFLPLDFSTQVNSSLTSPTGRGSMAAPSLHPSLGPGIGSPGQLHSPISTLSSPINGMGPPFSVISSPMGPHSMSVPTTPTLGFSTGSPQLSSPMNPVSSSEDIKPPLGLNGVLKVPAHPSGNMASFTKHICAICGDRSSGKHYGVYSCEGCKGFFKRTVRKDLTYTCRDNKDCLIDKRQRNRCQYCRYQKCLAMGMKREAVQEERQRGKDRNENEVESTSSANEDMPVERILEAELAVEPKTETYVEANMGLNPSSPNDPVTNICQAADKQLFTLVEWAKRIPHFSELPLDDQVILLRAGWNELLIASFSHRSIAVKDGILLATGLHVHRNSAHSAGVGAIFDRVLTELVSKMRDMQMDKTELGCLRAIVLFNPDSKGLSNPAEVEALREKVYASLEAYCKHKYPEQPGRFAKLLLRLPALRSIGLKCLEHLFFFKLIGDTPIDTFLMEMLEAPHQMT
Description: Dr. F. Gage provided a population of stably transformed cells containing CVBE and 6XEcRE as described in Suhr, S. T., Gil, E. B., Senut M. C., Gage, F. H. (1998) Proc. Natl. Acad. Sci. USA 95, 7999-804. Human 293 kidney cells, also referred to as HEK-293 cells, were sequentially infected with retroviral vectors encoding first the switch construct CVBE, and subsequently the reporter construct 6XEcRE Lac Z. The switch construct contained the coding sequence for amino acids 26-546 from Bombyx mori EcR (BE) (Iatrou) inserted in frame and downstream of the VP16 transactivation domain (VBE). A synthetic ATG start codon was placed under the control of cytomegalovirus (CVBE) immediate early promoter and flanked by long terminal repeats (LTR). The reporter construct contained six copies of the ecdysone response element (EcRE) binding site placed upstream of LacZ and flanked on both sides with LTR sequences (6XEcRE).
Dilution cloning was used to isolate individual clones. Clones were selected using 450 ug/mL G418 and 100 ng/mL puromycin. Individual clones were evaluated based on their response in the presence and absence of test ligands. Clone Z3 was selected for screening and SAR purposes.
Human 293 kidney cells stably transformed with CVBE and 6XEcRE lack were maintained in Minimum Essential Medium (Mediates, 10-010-CV) containing 10% FBS (Life Technologies, 26140-087), […] G418 (Mediates, 30-234-CR), and […] (Sigma, P-7255), at 37° C. in an atmosphere containing 5% CO2 and were subculture when they reached 75% confluence.
Z3 cells were seeded into 96-well tissue culture plates at a concentration of 2.5×10^3 cells per well and incubated at 37° C. in 5% CO2 for twenty-four hours. Stock solutions of ligands were prepared in DMSO. Ligand stock solutions were diluted 100 fold in media and 50 μL of this diluted ligand solution (33 μM) was added to cells. The final concentration of DMSO was maintained at […] in both controls and treatments.
Reporter gene expression was evaluated 48 hours after treatment of cells, β-galactosidase activity was measured using Gal Screen™ bioluminescent reporter gene assay system from Tropix (GSY1000).
Flanking both constructs are long terminal repeats, G418 and puromycin are selectable markers, CMV is the cytomegalovirus promoter, VBE is coding sequence for amino acids 26-546 from Bombyx mori EcR inserted downstream of the VP16 transactivation domain, 6×EcRE is six copies of the ecdysone response element, lacZ encodes for the reporter enzyme β-galactosidase. Suhr, S. T., Gil, E. B., Senut M. C., Gage, F. H. (1998) Proc. Natl. Acad. Sci. USA 95, 7999-804. Swevers, L., Drevet, J. R., Lunke, M. D., Iatrou, K. (1995) Insect Biochem. Mol. Biol. 25, 857-866.

Row | Compound | Fold Induction Average, 13B3 Assay (33 μM) [1] | Fold Induction Average, Z3 Assay (33 μM) [2] | Fold Induction Average, 13B3 Assay (33 μM) ([1]; single dose 33 μM, RLU ligand treated / RLU DMSO treated cells) | CC50 ([2]; average, dose response, three-parameter logistic model, read-out: Z3 LC50) | Z3 Rel Max FI ([2]; maximum fold induction at any concentration relative to that of GS-E ligand)
1 | COc1cccc(C(=O)NC2(C(=O)c3cccc(C)c3)CCC(=O)CC2)c1C [Example 61] | 0 | 102 | – | – | –
2 | CC(=O)NC(C(=O)c1ccc(C)cc1)c1ccccc1 (stereo not drawn) [Example 92] | 0 | 1 | – | – | –
3 | CC(=O)NC(C(=O)c1ccccc1)c1ccc(C)cc1 (stereo not drawn) [Example 93] | 0 | 1 | – | – | –
4 | CC(=O)NC(C(=O)c1ccccc1)c1ccccc1 (stereo not drawn) [Example 94] | 1 | 1 | – | – | –
5 | CC(C)(NC(=O)c1ccc(Cl)cc1)C(=O)c1ccccc1 [Example 95] | – | 4 | 1 | 820 nM | 2.27
6 | Cc1ccc(C(=O)NC(C(=O)c2ccccc2)C(C)(C)C)cc1 (stereo not drawn) [Example 96] | 0 | 1 | – | – | –
7 | Cc1cccc(C(=O)NC(C(=O)c2ccccc2)C(C)(C)C)c1C (stereo not drawn) [Example 97] | 0 | 1 | – | – | –
8 | CC(C)(C)C(NC(=O)c1ccc([N+](=O)[O-])cc1)C(=O)c1ccccc1 (stereo not drawn) [Example 98] | 0 | 1 | – | – | –
9 | COc1cccc(C(=O)C2(NC(=O)c3cccc(OC)c3C)CC2)c1 [Example 99] | 0 | 1 | – | – | –
10 | COc1cccc(C(=O)C(C)(Cc2ccccc2)NC(=O)c2cccc(OC)c2C)c1 (stereo not drawn) [Example 100] | 0 | 2 | – | – | –
11 | COc1cccc(C(=O)NC2(C(=O)c3ccccc3C)CC2)c1C [Example 101] | 2 | 2 | – | – | –
12 | Cc1c(C(=O)NC2(C(=O)c3ccccc3)CCCC2)oc2ccccc12 [Example 102] | 1 | 1 | – | – | –
13 | CC(C)(NC(=O)c1ccccc1)C(=O)c1ccccc1 [Example 104] | 0 | 1 | – | – | –
14 | Cc1ccccc1C(=O)NC(C)(C)C(=O)c1ccccc1 [Example 105] | 3 | 1 | – | – | –
15 | CC(C)(NC(=O)c1ccc2c(c1)OCO2)C(=O)c1ccccc1 [Example 106] | 3 | 1 | – | – | –
16 | COc1cccc(C(=O)NC(C)(C)C(=O)c2ccccc2)c1 [Example 107] | 2 | 1 | – | – | –
17 | CCc1ccc(C(=O)NC(C)(C)C(=O)c2ccccc2)cc1 [Example 108] | 1 | 2 | – | – | –
18 | COc1cccc(C(=O)NC2(C(=O)c3cccc(C)c3)CCN(C(=O)OC(C)(C)C)CC2)c1C [Example 109] | 0 | 3 | – | – | –
19 | COc1cccc(C(=O)NC2(C(=O)c3cc(C)cc(C)c3)CCN(C(=O)OC(C)(C)C)CC2)c1C [Example 110] | 2 | 1 | – | – | –
20 | COc1cccc(C(=O)NC(C)(C(=O)c2ccc3c(c2)OCO3)C(C)C)c1C (stereo not drawn) [Example 111] | 0 | 1 | – | – | –
21 | COc1cccc(C(=O)NC(C)(C(C)=O)C(C)C)c1C (stereo not drawn) [Example 112] | 2 | 1 | – | – | –
22 | COc1cccc(C(=O)NC(C(=O)c2cccc(C)c2)C(C)(C)C)c1C (stereo not drawn) [Example 113] | 1 | 4 | – | – | –
23 | COc1cccc(C(=O)C(NC(=O)c2cccc(OC)c2C)C(C)(C)C)c1 (stereo not drawn) [Example 114] | 2 | 3 | – | – | –
24 | COc1cccc(C(=O)NC(C(=O)c2cc(C)cc(C)c2)C(C)(C)C)c1C (stereo not drawn) [Example 115] | 1 | 15 | – | – | –
25 | COc1ccccc1C(=O)NC(C)(C)C(=O)c1cccc(C)c1 [Example 116] | 4 | 1 | – | – | –
26 | COc1ccc(C(=O)C(C)(CC(C)C)NC(=O)c2cccc(OC)c2C)cc1 (stereo not drawn) [Example 118] | 0 | 1 | – | – | –
